The values below come from article PMC11995226, “Linker-Determined Folding and Hydrophobic Interactions Explain a Major Difference in PROTAC Cell Permeability” (ACS Medicinal Chemistry Letters, 2025).

Details of series [1]: method as in PMID 39693386. The note with it: logarithm of Pe; Data reported recently; cited from earlier work.
Series [2] in a line: EPSA (experimental polar surface area, chromatographic). The series is classed as physicochemical. The procedure:
1. Experimental and Computational Methods […]
EPSA. EPSA retention times for 1 and 2 were determined at Sygnature Discovery. In brief, the
EPSA assay was performed on a Waters Acquity UPC2 system equipped with a PDA and a
QDa detector, using a Phenomenex Chirex (S)-VAL and (R)-NEA LC column (50 x 4.6 mm).
A gradient of MeOH, containing 20 mM ammonium formate, in CO2 was used as eluent.

The nature of series [3]: FaSSIF and FeSSIF solubility. The series is classed as physicochemical. The protocol:
1. Experimental and Computational Methods
Fasted and Fed State Simulated Intestinal Fluid (FaSSIF and FeSSIF) Solubility.
Suspensions of amorphous 1 and 2 were stirred at 37 °C in FaSSIF and FeSSIF for 24 h ± 4 h
prior to filtration and analysis of the filtrate. The solubility was determined via HPLC-MS
analysis of the filtrate using a calibration curve (external standard). […]

On the set-up of series [4]: method as in PMID 39693386. The settings on record: Data reported recently; cited from earlier work.
[5] abbreviates: FaSSIF, pH 6.5, 37 °C, read-out: Solubility FaSSIF, pH 6.5.
Where [6] appears, read: FeSSIF, pH 5.0, 37 °C, read-out: Solubility FeSSIF, pH 5.0.

Converted amounts (≈) assume the structure as drawn. Where two headings read alike, the source gives them in different places.

A word on the solubility: it is the dissolved amount per volume that the medium holds. As to `Cc1ncsc1-c1ccc(CNC(=O)[C@@H]2C[C@@H](O)CN2C(=O)[C@@H](NC(=O)CCOCCOCCOc2cnc3c(C4CCN(C(=O)c5ccc(OC(F)(F)F)cc5)CC4)ncnc3c2)C(C)(C)C)cc1` [PROTAC 2], in series [1], the “PAMPA Log[Pe (cm/s)]” value is -5.4 log10(Pe in cm/s). In series [2], this compound displayed an EPSA of 91.5 A^2. Further, the solubility at 24 h in series [3] (setting [5]) is 53.2 µM (≈ 52.7 µg/mL); in series [3] (setting [6]), 349 µM (≈ 346 µg/mL).
For `Cc1ncsc1-c1ccc(CNC(=O)[C@@H]2C[C@@H](O)CN2C(=O)[C@@H](NC(=O)CCCCCCCCOc2cnc3c(C4CCN(C(=O)c5ccc(OC(F)(F)F)cc5)CC4)ncnc3c2)C(C)(C)C)cc1` [PROTAC 1], the “PAMPA Log[Pe (cm/s)]” value in series [1] is listed as -8.3 log10(Pe in cm/s). In series [2], this compound yielded an EPSA of 93.1 A^2. Further, the solubility at 24 h in series [3] (setting [5]) is 18.6 µM (≈ 18.4 µg/mL); in series [3] (setting [6]), 174 µM (≈ 172 µg/mL). Also, the “Solubility PBS, pH 6.5” value in series [4] is recorded as below 0.1 μM.
